In US9624208B2, “Benzoxazolinone compounds with selective activity in voltage-gated sodium channels” (Merck Sharp & Dohme Corp., priority 2012, dated 2017):

Experiments:
human Nav1.7 = target: T1, human Nav1.7 (Homo sapiens, UniProt Q15858); assay: PatchXpress sodium current measurement, inactivated state block, Nav1.7; assay type: cell-based; settings: channels stably expressed in HEK 293 cells, double-pulse protocol, 22° C., read-out: potency for the Nav 1.7 sodium ion channel (1.7=)
T1 construct: expressed in transfected cells
In short: (§1)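 HEK293 cells stably expressing channel; automated patch clamp at 22 °C, double-pulse protocol: hold 20 mV below V½ inactivation, 8000 ms prepulse 7 mV above V½, 2 ms step to −120 mV, 20 ms test pulse to −20 mV. CsF-based internal (pH 7.3), NMDG/40 mM NaCl external (pH 7.5). Rundown-corrected % inhibition (≥2 concentrations) fitted to Hill equation for IC50.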

human Nav1.5 = target: T2, human Nav1.5 (Homo sapiens, UniProt Q14524); assay: PatchXpress sodium current measurement, inactivated state block, Nav1.5; assay type: cell-based; settings: determined by PatchXpress measurement, HEK 293 cells
T2 construct: expressed in transfected cells
In short: as §1

T1 sequence (Q15858 whole entry): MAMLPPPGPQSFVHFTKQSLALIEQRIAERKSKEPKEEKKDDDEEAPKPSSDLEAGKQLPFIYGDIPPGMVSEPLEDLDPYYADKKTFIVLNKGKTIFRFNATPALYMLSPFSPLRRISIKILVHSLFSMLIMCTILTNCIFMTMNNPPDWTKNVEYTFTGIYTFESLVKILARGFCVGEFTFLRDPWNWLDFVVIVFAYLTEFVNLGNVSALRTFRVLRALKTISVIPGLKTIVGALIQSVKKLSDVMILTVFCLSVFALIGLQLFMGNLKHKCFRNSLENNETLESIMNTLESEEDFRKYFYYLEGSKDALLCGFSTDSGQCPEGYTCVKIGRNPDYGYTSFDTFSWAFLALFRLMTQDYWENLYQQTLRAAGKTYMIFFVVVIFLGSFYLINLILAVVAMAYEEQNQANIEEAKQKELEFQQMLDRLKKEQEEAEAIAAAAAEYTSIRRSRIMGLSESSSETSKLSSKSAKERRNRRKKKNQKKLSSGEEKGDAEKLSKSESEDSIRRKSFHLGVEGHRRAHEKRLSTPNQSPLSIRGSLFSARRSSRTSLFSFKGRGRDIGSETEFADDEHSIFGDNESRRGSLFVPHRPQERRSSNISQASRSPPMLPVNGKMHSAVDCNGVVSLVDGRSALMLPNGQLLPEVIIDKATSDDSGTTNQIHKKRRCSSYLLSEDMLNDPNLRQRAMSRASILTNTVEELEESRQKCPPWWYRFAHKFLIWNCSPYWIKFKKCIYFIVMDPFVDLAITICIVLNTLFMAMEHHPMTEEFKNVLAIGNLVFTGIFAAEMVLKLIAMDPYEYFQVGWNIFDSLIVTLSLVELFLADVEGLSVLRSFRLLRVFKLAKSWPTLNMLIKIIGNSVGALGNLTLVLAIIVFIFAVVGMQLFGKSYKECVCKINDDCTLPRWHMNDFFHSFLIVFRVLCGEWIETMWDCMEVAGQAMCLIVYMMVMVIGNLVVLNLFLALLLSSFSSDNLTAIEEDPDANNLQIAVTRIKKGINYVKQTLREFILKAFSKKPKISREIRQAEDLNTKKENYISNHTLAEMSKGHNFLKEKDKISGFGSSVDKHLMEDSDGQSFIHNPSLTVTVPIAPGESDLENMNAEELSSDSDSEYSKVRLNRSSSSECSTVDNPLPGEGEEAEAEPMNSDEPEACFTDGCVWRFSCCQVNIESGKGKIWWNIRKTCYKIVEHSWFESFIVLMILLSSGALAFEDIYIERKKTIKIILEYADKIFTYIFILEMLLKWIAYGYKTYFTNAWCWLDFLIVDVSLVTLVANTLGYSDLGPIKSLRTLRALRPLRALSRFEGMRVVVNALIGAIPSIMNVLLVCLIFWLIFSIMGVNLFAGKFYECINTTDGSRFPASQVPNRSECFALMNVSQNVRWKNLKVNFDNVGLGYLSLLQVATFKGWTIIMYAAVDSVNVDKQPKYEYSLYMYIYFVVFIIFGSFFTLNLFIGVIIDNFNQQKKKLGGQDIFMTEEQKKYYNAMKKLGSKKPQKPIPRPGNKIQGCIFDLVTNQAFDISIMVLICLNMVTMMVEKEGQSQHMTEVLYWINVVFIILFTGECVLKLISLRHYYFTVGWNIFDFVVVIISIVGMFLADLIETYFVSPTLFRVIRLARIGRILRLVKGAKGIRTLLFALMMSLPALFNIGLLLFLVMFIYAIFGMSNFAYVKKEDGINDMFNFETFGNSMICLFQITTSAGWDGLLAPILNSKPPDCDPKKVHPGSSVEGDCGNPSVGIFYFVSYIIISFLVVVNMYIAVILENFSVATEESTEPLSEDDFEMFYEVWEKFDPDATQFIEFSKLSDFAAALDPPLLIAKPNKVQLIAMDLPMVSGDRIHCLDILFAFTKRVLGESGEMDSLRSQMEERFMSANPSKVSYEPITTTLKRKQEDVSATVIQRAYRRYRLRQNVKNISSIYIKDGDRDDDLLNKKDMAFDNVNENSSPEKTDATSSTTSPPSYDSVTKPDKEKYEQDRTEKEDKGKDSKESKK
T2 sequence (Q14524 whole entry): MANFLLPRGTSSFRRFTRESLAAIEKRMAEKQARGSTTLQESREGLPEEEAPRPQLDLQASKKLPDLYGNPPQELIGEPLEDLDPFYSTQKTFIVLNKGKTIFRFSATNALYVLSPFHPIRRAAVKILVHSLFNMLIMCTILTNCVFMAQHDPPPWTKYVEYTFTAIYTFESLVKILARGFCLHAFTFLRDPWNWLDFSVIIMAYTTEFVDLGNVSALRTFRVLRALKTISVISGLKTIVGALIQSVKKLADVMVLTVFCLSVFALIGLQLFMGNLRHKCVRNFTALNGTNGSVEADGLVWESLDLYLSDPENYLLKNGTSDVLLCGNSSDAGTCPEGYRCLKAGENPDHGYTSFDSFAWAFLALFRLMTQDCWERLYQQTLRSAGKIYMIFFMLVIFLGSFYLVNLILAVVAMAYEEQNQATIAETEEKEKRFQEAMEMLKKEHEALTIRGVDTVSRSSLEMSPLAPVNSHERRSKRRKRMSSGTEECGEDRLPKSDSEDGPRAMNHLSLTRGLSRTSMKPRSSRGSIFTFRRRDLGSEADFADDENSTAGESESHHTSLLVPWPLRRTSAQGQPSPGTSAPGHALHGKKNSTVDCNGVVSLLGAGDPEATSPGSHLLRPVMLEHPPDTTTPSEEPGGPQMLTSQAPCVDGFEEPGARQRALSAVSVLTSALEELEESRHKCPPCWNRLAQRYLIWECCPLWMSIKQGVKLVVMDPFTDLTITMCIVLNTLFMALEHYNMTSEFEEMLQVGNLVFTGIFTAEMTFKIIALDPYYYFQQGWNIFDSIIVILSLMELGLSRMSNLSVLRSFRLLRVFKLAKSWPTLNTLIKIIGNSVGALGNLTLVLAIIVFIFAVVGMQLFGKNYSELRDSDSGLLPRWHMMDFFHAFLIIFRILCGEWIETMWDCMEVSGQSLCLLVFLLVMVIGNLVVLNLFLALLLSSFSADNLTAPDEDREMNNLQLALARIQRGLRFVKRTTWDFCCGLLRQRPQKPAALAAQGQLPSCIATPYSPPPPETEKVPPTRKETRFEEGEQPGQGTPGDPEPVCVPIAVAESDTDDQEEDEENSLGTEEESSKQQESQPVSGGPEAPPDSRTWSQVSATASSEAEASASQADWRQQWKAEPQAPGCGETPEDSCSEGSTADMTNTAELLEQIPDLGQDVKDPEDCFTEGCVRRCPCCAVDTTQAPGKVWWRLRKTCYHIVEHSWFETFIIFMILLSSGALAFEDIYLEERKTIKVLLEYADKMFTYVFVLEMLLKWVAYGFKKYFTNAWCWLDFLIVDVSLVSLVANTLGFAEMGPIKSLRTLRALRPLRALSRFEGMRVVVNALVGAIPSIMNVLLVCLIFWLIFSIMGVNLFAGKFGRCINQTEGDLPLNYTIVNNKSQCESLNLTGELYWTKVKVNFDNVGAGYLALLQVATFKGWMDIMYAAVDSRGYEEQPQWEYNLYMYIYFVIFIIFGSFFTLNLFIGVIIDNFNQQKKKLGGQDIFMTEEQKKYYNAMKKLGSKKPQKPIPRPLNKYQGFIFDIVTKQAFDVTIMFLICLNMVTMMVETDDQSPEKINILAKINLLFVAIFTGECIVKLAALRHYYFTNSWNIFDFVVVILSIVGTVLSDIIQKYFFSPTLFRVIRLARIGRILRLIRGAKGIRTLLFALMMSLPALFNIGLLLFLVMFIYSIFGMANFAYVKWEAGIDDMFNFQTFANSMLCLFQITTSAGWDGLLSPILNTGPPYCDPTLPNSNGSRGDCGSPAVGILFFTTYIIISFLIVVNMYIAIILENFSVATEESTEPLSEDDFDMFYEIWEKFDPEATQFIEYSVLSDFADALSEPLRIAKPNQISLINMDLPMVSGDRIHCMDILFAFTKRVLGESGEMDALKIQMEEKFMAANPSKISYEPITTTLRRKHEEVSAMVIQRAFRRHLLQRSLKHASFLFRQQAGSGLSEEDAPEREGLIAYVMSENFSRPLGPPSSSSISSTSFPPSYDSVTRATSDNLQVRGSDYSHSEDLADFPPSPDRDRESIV

| Compound | IC50 (human Nav1.7) | ratio of Nav 1.5:Nav 1.7 potency (human Nav1.5) |
| --- | --- | --- |
| C[C@H](c1cccc(C#C[C@@H]2CCCC[C@@H]2N)c1)n1c(=O)oc2cc(S(=O)(=O)Nc3cccc(F)n3)c(F)cc21 [Ex21-17, 3-[(1R)-1-(3-{[(1S,2S)-2-aminocyclohexyl]ethynyl}phenyl)ethyl]-5-fluoro-N-(6-fluoropyridin-2-yl)-2-oxo-2,3-dihydro-1,3-benzoxazole-6-sulfonamide] | 0.068 µM | 41 |
| C[C@H](c1cccc(C#CC2CCCC2N)c1)n1c(=O)oc2cc(S(=O)(=O)Nc3cccc(F)n3)c(F)cc21 (stereo partly drawn) [Ex21-18, 3-[(1R)-1-{3-[(2-aminocyclopentyl)ethynyl]phenyl}ethyl]-5-fluoro-N-(6-fluoropyridin-2-yl)-2-oxo-2,3-dihydro-1,3-benzoxazole-6-sulfonamide] | 0.118 µM | 64 |
| C[C@H](c1cccc(C#CCN)c1)n1c(=O)oc2cc(S(=O)(=O)Nc3cccc(F)n3)c(F)cc21 [Ex21-21, 3-{(1R)-1-[3-(3-aminoprop-1-yn-1-yl)phenyl]ethyl}-5-fluoro-N-(6-fluoropyridin-2-yl)-2-oxo-2,3-dihydro-1,3-benzoxazole-6-sulfonamide] | 0.155 µM | 193 |
| Cc1cc2c(cc1S(=O)(=O)Nc1cccc(F)n1)oc(=O)n2[C@H](C)c1cccc(C#CCN)c1 [Ex21-23, 3-{(1R)-1-[3-(3-aminoprop-1-yn-1-yl)phenyl]ethyl}-N-(6-fluoropyridin-2-yl)-5-methyl-2-oxo-2,3-dihydro-1,3-benzoxazole-6-sulfonamide] | 0.09 µM | 251 |
| Cc1cc2c(cc1S(=O)(=O)Nc1cccc(F)n1)oc(=O)n2[C@H](C)c1cccc(C)c1C#C[C@@H]1CCCC[C@@H]1N [Ex21-25, 3-[(1R)-1-(2-{[(1S,2S)-2-aminocyclohexyl]-ethynyl}-3-methylphenyl)ethyl]-N-(6-fluoropyridin-2-yl)-5-methyl-2-oxo-2,3-dihydro-1,3-benzoxazole-6-sulfonamide] | 0.009 µM | 167 |
| C[C@H](c1cccc(CCCN)c1)n1c(=O)oc2cc(S(=O)(=O)Nc3cccc(F)n3)c(F)cc21 [Ex22-1, 3-{(1R)-1-[3-(3-aminopropyl)phenyl]ethyl}-5-fluoro-N-(6-fluoropyridin-2-yl)-2-oxo-2,3-dihydro-1,3-benzoxazole-6-sulfonamide] | 0.055 µM | 380 |
| Cc1cc2c(cc1S(=O)(=O)Nc1cccc(F)n1)oc(=O)n2[C@H](C)c1cccc(CCCN)c1 [Ex22-2, 3-{(1R)-1-[3-(3-amino-propyl)phenyl]ethyl}-N-(6-fluoropyridin-2-yl)-5-methyl-2-oxo-2,3-dihydro-1,3-benzoxazole-6-sulfonamide] | 0.07 µM | 305 |
| C[C@H](c1cccc(CCCN2CCC2)c1)n1c(=O)oc2cc(S(=O)(=O)Nc3cccc(F)n3)c(F)cc21 [Ex22-4, 3-[(1R)-1-{3-[3-(azetidin-1-yl)propyl]phenyl}ethyl]-5-fluoro-N-(6-fluoro-pyridin-2-yl)-2-oxo-2,3-dihydro-1,3-benzoxazole-6-sulfonamide] | 0.169 µM | 178 |
| C[C@H](c1ccccc1N1CCNCC1)n1c(=O)oc2cc(S(=O)(=O)Nc3cccc(F)n3)c(F)cc21 [Ex23-1, 5-fluoro-N-(6-fluoropyridin-2-yl)-2-oxo-3-{(1R)-1-[2-(piperazin-1-yl)phenyl]ethyl}-2,3-dihydro-1,3-benzoxazole-6-sulfonamide] | 0.15 µM | 200 |
| Cc1cc2c(cc1S(=O)(=O)Nc1cccc(F)n1)oc(=O)n2[C@H](C)c1ccccc1N1CCNCC1 [Ex23-2, N-(6-fluoropyridin-2-yl)-5-methyl-2-oxo-3-{(1R)-1-[2-(piperazin-1-yl)phenyl]ethyl}-2,3-dihydro-1,3-benzoxazole-6-sulfonamide] | 0.074 µM | 405 |

The remaining compounds from weak to strong by IC50 (human Nav1.7), led by results:

| IC50 (human Nav1.7) | Compound | ratio of Nav 1.5:Nav 1.7 potency (human Nav1.5) |
| --- | --- | --- |
| 0.516 µM | CCN(CC)CC#Cc1cccc([C@@H](C)n2c(=O)oc3cc(S(=O)(=O)Nc4cccc(F)n4)c(F)cc32)c1 [Ex21-15, 3-[(1R)-1-{3-[3-(diethylamino)prop-1-yn-1-yl]phenyl}ethyl]-5-fluoro-N-(6-fluoropyridin-2-yl)-2-oxo-2,3-dihydro-1,3-benzoxazole-6-sulfonamide] | 58 |
| 0.2 µM | Cc1cc2c(cc1S(=O)(=O)Nc1cccc(F)n1)oc(=O)n2[C@H](C)c1cccc(C#CCN2CCC2)c1 [Ex21-20, 3-[(1R)-1-{3-[3-(azetidin-1-yl)prop-1-yn-l-yl]phenyl}ethyl]-N-(6-fluoropyridin-2-yl)-5-methyl-2-oxo-2,3-dihydro-1,3-benzoxazole-6-sulfonamide] | 30 |
| 0.136 µM | Cc1c(C#CCN)cccc1[C@@H](C)n1c(=O)oc2cc(S(=O)(=O)Nc3cccc(F)n3)c(F)cc21 [Ex21-22, 3-{(1R)-1-[3-(3-aminoprop-1-yn-1-yl)-2-methylphenyl]ethyl}-5-fluoro-N-(6-fluoropyridin-2-yl)-2-oxo-2,3-dihydro-1,3-benzoxazole-6-sulfonamide] | 220 |
| 0.102 µM | Cc1cc2c(cc1S(=O)(=O)Nc1cccc(F)n1)oc(=O)n2[C@H](C)c1cccc(C#CCN)c1C [Ex21-24, 3-{(1R)-1-[3-(3-aminoprop-1-yn-1-yl)-2-methylphenyl]ethyl}-N-(6-fluoropyridin-2-yl)-5-methyl-2-oxo-2,3-dihydro-1,3-benzoxazole-6-sulfonamide] | 240 |
| 0.101 µM | Cc1c(CCCN)cccc1[C@@H](C)n1c(=O)oc2cc(S(=O)(=O)Nc3cccc(F)n3)c(F)cc21 [Ex22-3, 3-{(1R)-1-[3-(3-amino-propyl)-2-methylphenyl]ethyl}-5-fluoro-N-(6-fluoropyridin-2-yl)-2-oxo-2,3-dihydro-1,3-benzoxazole-6-sulfonamide] | 297 |
| 0.032 µM | Cc1cccc([C@@H](C)n2c(=O)oc3cc(S(=O)(=O)Nc4cccc(F)n4)c(F)cc32)c1C#C[C@@H]1CCCC[C@@H]1N [Ex21-27, 3-[(1R)-1-(2-{[(1S,2S)-2-aminocyclohexyl]-ethynyl}-3-methylphenyl)ethyl]-5-fluoro-N-(6-fluoropyridin-2-yl)-2-oxo-2,3-dihydro-1,3-benzoxazole-6-sulfonamide] | 476 |
| 0.016 µM | Cc1cc2c(cc1S(=O)(=O)Nc1cccc(F)n1)oc(=O)n2[C@H](C)c1cccc(C)c1C#C[C@H]1CCCC[C@H]1N [Ex21-26, 3-[(1R)-1-(2-{[(1R,2R)-2-aminocyclohexyl]-ethynyl}-3-methylphenyl)ethyl]-N-(6-fluoropyridin-2-yl)-5-methyl-2-oxo-2,3-dihydro-1,3-benzoxazole-6-sulfonamide] | 192 |
